According to patent US8536196B2, “Substituted 1,3-dioxanes useful as PPAR modulators” (Evolva SA, priority 2007, dated 2013):

Legend:
Gal4-PPARgammaLBD = molecular target: T1, Gal4-PPARgammaLBD (Homo sapiens, UniProt P37231); assay: PPARgamma transactivation assay (Gal4-PPARgammaLBD, UASx4-TK-luc reporter); format: cell-based; details: 10 μM
T1 construct: expressed in transfected cells; host or cells: mouse embryonic fibroblasts (MEFs) or ME3 cells
T1 sequence (P37231 204-505): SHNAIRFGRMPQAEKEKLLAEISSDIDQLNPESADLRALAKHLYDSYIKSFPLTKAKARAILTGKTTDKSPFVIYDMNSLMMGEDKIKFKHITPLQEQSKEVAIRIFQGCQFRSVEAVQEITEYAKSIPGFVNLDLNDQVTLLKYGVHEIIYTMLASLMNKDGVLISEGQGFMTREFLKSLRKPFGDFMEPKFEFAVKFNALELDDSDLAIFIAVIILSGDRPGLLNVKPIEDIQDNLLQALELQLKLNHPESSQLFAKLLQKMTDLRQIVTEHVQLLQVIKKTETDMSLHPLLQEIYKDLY
Source text: This is an example of a transactivation assay for determining PPAR gamma modulating activity.
The UASx-4-TK-luc reporter construct (where UAS refers to “upstream activator sequence”) contains four Gal4-responsive elements. The plasmid Gal4-PPARgammaLBD encodes a Gal4-DBD-PPARgamma-LBD fusion protein (i.e. the DNA-binding domain, DBD, of Gal4 fused to the ligand-binding domain, LBD, of PPARgamma) capable of transactivating the UASx-4-TK-luc reporter plasmid by binding to the UAS. The CMV-beta-galactosidase plasmid (where CMV is cytomegalovirus) is used for normalization of experimental values.
The cells were replated, typically in 24 well plates, so that at the time of transfection the cells are 50-70% confluent.
Briefly, per well in a 24 well plate, UASx4TKIuc (0.2 μg) Gal4-PPARgammaLBD (or pM-hPPARgamma-LBD; 0.1 μg) and CMV-beta-galactosidase (0.05 μg) in 30 μL DMEM (free of serum and antibiotics) is mixed with 30 μL DMEM (free of serum and antibiotics) containing 1 μL metafectenein. The mixture is incubated at room temperature for 20 min to allow formation of nucleic acid-lipid complexes and then approximately 60 μL is added to each well containing the 50-60% confluent cells. […] Cells were harvested after 12-24 hours and luciferase and beta-galactosidase activities were measured according to standard protocols.
“−” means that testing was not performed.

hRXRαLBD = molecular target: T2, hRXRαLBD (Homo sapiens, UniProt P19793); assay: RXR transactivation assay; format: cell-based
T2 construct: expressed in transfected cells
T2 sequence (P19793 227-458 limits assumed): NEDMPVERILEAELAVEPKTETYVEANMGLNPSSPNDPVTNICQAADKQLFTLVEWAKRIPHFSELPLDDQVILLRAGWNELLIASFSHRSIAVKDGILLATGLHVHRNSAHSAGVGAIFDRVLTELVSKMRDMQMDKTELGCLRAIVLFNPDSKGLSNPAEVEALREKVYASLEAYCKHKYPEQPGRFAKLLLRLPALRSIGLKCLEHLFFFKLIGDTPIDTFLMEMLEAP
Procedure: This example describes a retinoic acid X receptor transactivation assay.
Compounds are tested for their ability to transactivate RXR essentially as described in Example 22.

3T3-L1 cells = assay: Inhibition of adipocyte differentiation assay (Oil Red O staining); format: cell-based
Procedure: To test compounds as inhibitors of adipocyte differentiation, 3T3-L1 cells are grown as above until two-day postconfluence (designated day 0), after which the cells are induced to differentiate with DMEM containing 10% fetal bovine serum (FBS), 1 μM dexamethasone (Sigma), 0.5 mM methylisobutylxanthine (Sigma), 1 μg/ml insulin (Roche Molecular Biochemicals) and the test-compound. Cells induced to differentiate in presence of solvent of the test-compounds are used as positive control. After 48 h, the cells are re-fed with DMEM containing 10% FBS supplemented with the test compound or the positive control. From day 4, cells are grown in DMEM with 10% FBS and are changed every second day until day 8. At day 8, cells are stained with Oil Red O as described below.
(§1) Cells cultured as described above are used for Oil Red staining. Dishes are washed in PBS and cells were fixed in 3.7% paraformaldehyde for 1 h and stained with oil red O as described in (Hansen et al 1999). Oil red O solution stock solution is prepared by dissolving 0.5 g of Oil Red O (Sigma) in 100 mL of isopropanol. Oil re 0 working solution is prepared by diluting a stock solution with water (6:4) followed by filtration.

human pre-adipocytes = assay: Adipocyte differentiation assay using human pre-adipocytes; format: cell-based
MEFs / 3T3-L1 = assay: Adipocyte differentiation induction assay (Oil Red O staining); format: cell-based, mouse
Procedure: This example describes an assay for determining adipocyte differention. Compounds are tested to see whether they induce adipocyte differentiation and also to see whether they inhibit adipocyte differention.
MEFs were grown in AmnioMax basal medium (Gibco) supplemented with 7.5% Amniomax supplement C-100 (Gibco), 7.5% Fetal Bovine Serum (FBS), 2 mM Glutamine, 62.5 μg/ml penicillin and 100 μg/ml Streptomycin (growth medium). At confluence, MEFs were induced to differentiation in growth medium with the addition of 1 μM dexamethasone (Sigma) 0.5 mM isobutylmethylxanthine (Sigma), 5 μg/ml insulin (Sigma) and 10 μM test compound dissolved in DMSO or DMSO alone. Medium was subsequently renewed every 48 hrs with growth media supplemented with 5 μg/ml Insulin and ligand or DMSO.
Briefly, to test compounds as inducers of adipocyte differentiation, 3T3-L1 are grown to confluence in DMEM with 10% Calf serum (CS), typically in 24 well dishes. At 2 days post confluence (day 0), cells are induced to differentiate with DMEM supplemented with 10% fetal bovine serum (FBS), 1 μM dexamethasone and the test compound (01, 1 and 10 μM). BRL49653 (1.0 μM dissolved in 100% DMSO) is used as a positive control. After 48 h, the cells are re-fed with DMEM containing 10% FBS supplemented with the test compound or the positive control. From day 4, cells are grown in DMEM with 10% FBS and are changed every second day until day 8. At day 8, cells are stained with Oil Red O as described below.
as §1
Table II summarizes results obtained with different analogs of DPD (SN1), “0” representing similar results to DPD, “−1” representing even less adipocyte differentiation, “+1” representing more adipocyte differentiation (both relative to DPD) and “−” meaning not assayed.

SMILES: O=C(O)CC/C=C\CC1COC(c2ccccc2Cl)OC1c1ccccc1O (racemic) [SN1, (Z)-6-(-2-(2-chlorophenyl)-4-(2-hydroxyphenyl)-1,3-dioxan-5-yl)hex-4-enoic acid]
- PPAR transactivation higher than with DMSO alone (Gal4-PPARgammaLBD): about 10 fold
- increase in RXR transactivation (hRXRαLBD): no transactivation
- inhibition of adipocyte differentiation (3T3-L1 cells): no significant effect
- red staining (Oil Red O), human pre-adipocytes (human pre-adipocytes): very little red staining, similar to DMSO
- red staining (Oil Red O) in the induction assay (MEFs / 3T3-L1): very little red staining
